How the values were obtained:
mice [1] = assay: Acute toxicity, LD50 test in mice; type: in vivo
Source text: This compound (Compound II in U.S. Pat. No. 4,395,399), also known as glycopin, has already undergone preclinical toxicity testing and pharmacokinetic investigations required for licensing for clinical use in the USSR. The acute toxicity in mice, measured by the LD50 test is 7 g/kg.

C57BL/6 mice = assay: Duration of hexenal narcosis in C57BL/6 mice; type: in vivo
Source text: Cytochrome P450 -dependent monooxygenase activity induction in accordance with pharmacological testing of HEXENAL™ narcosis duration in mice.
In addition to the experiments, which have shown GMDP ability to interact directly with cytochrome P450 molecule as a substrate (in vitro) and to induce cytochrome P450 system in liver microsomes (GMDP effect in vivo), experiments for testing cytochrome P450 system according to the duration of HEXENAL™ narcosis in mice have been carried out. It is well known that HEXENAL™ is a substrate of cytochrome P450, and the duration of its narcotic effect clearly correlates with the rate of its oxidation in the liver cytochrome P450 system. The method of Example 6 was repeated, but instead of aniline and benzo(a)pyrene, the ability of the microsomes to metabolise HEXENAL™ was tested. The experiments performed have shown that GMDP in small doses is capable of inducing cytochrome P450 -dependent oxidation of HEXENAL™ (Tables 3 and 4).

[2] = test system: cells of the reticulo-endothelial system; conditions: cited from earlier work
Water solubility = type: physicochemical
Source text: GMDP also has the particular advantage, shared with the other glucosaminyl-muramyl peptides of U.S. Pat. No. 4,395,399, of being water soluble: this is a real benefit for parenteral administration. The choice of this muramyl dipeptide which in many ways is contrary to the trend in the art. Both muroctasin and MTP-PE have been specifically synthesised to incorporate a lipophilic group, and many non-lipophile-substituted muramyl dipeptides have been formulated in lipophilic preparations such as liposomes (as in U.S. Pat. No. 4,522,811 and U.S. Pat. No. 4,684,625), purportedly to enhance the activity of the muramyl dipeptide. In the present invention, water solubility is preferred.

mice [3] = assay: Duration of HEXENAL (hexobarbital) narcosis in mice, oral GMDP; type: in vivo; conditions: for Effect % (M ± m): vs control
Procedure: This example studies the effect of GMDP on the duration of narcosis induced by hexobarbital.
GMDP was administered orally to mice 15 minutes before the intraperitoneal injection of hexobarbital (HEXENAL™) at 50 mg/kg. The duration of narcosis (preservation of the lateral position) was recorded.

[4] = Placebo-controlled trial in colorectal surgery patients, blood bilirubin; type: in vivo, human; conditions: GMDP 1, 2 or 3 mg per day for 10 days
Source text: Over 200 patients were enrolled in a placebo-controlled trial to determine the effect of GMDP on the outcome of colorectal surgery. Many of these patients had undergone previous chemotherapy for the treatment of cancers, often over substantial periods of time, with the result that liver damage had occurred.
This was evidenced by such indicators as elevated bilirubin in their blood, resulting from the reduced ability of the liver to function as a detoxification organ. […] GMDP or placebo were administered for 10 days, and bilirubin levels in the blood were measured before and after the course of treatment. Bilirubin data were obtained from 182 of the subjects. It is clear that the average blood level of bilirubin decreased in the GMDP-treated group and the two asterisks indicate that this decrease was statistically highly significant (p=0.002). […] Blood levels of bilirubin before the trial were not different in the two groups.

outbred mice = assay: Duration of acetaldehyde narcosis in outbred mice; type: in vivo; conditions: GMDP IP, three daily injections; acetaldehyde 450 mg/kg IP
Procedure: (§1) Outbred white mice were given three intraperitoneal injections of GMDP at daily intervals and challenged with ethanol (4.5 g/kg IP) after the last GMDP injection. Narcosis was defined as the time in the lateral position ("leglessness"). […] Each group contained 10 to 12 mice.
The procedure of Example 1 was followed but modified to study the duration of acetaldehyde narcosis. Acetaldehyde, at 450 mg/kg was administered IP after the last GMDP dose, instead of the ethanol.

outbred white mice = assay: Duration of ethanol narcosis in outbred white mice; type: in vivo; conditions: GMDP at least 0.01 mg/kg IP, three daily injections; ethanol 4.5 g/kg IP; vs control
Source text: as §1
In this example, the influence of GMDPA and various GMDP or GMDPA analogues on ethanol narcosis was studied. The procedure of Example 1 was followed, except that instead of the GMDP, one of the following compounds was administered IP at 1 mg/kg daily for three days: […]

Pyrogenicity = assay: Pyrogenicity
Source text: Pyrogenicity is a problem which has caused difficulties for the exploitation of certain muramyl dipeptides. Pyrogenicity may be attenuated by appropriate formulations (see, for example, the liposomal formulations of U.S. Pat. Nos. 4,522,811 and 4,684,625), but in general it will be preferable to choose, for use in the present invention, a muramyl dipeptide which has low intrinsic pyrogenicity. […] Such an analogue is available, and is N-acetyl-glucosaminyl-N-acetyl-muramyl-L-alanyl-D-glutamic acid (GMDP-A), which is Compound III in U.S. Pat. No. 4,395,399, and whose structure is as follows: [drawing 5]

[5] = test system: liver microsomal cytochrome P450; assay: Optical difference spectrum with liver microsomal cytochrome P450; type: binding; conditions: oxidised microsomes from phenobarbital-induced rat liver
Source text: The cytochrome P450 system is a system by means of which toxins are metabolised in the liver. A wide variety of substances combine with oxidised liver microsomal cytochrome P450 bringing about a change in absorbency. It has been shown that various drugs, substrates and inhibitors react with microsomal cytochrome P450 to give three characteristic types of spectral change.
The three types of spectral changes are as follows.
i) For substances such as ethylmorphine or hexobarbital, the minimum difference in the spectrum occurs at about 420 nm and the maximum at about 385-390 nm. These substances are designated type I compounds).
ii) For compounds such as aniline or nicotinamide, the minimum difference in the spectrum occurs at about 390-410 nm and the maximum at about 430 nm. These substances are designated type II compounds.
iii) Some compounds are apparently type II substrates but actually act by displacing endogenous type I substrates when added to microsomes. These compounds are designated reverse type I substrates.
It has been shown that, for a number of substrates, the apparent binding constants calculated from spectral changes are related to the actual binding of type I substrates at the active site.
Ks (spectral association constant) was 0.1 mM. This is Ks for the well known cytochrome P450 HEXENAL™.

[6] = test system: mice liver cytochrome P-450 system; assay: Indices of activity of mice liver cytochrome P-450 system after GMDP injections; type: in vivo
Procedure: The experiments were performed on white male mice with a mass of […]. GMDP was dissolved in isotonic solution of sodium chloride and administered by means of intraperitoneal injection once a day for 3 days, with a dose of 20 mg/kg. A corresponding volume of the solvent was administered to control animals. Each group (test and control) consisted of 8 to 10 mice. Twenty-four hours after the last injection of the substances under test (test) and the solvent (control), the animals were killed, the liver was removed and its weight was determined. This was followed by the isolation of the microsomal fraction by means of differential centrifugation. The quality protein in it was determined according to the method of Lowry et al (Lowry et al, J. Biol. Chem., 193, 265-275 (1951)). Bovine serum albumin was used in the construction of calibrating plot. The content of cytochrome P450 and B5 in the liver microsomal fraction was determined by spectrophotometric method with the help of a `Hitachi-556` spectrophotometer. The rate of oxidation of aniline (p-hydroxylation) in microsomes in the presence of NADPH was determined spectrophotometrically on the basis of p-aminophenol which has formed already. The rate of oxidation of benzo(a)pyrene (BP) in liver microsomes was determined according to the intensity of fluorescence of the forming 3-oxibenzo (a) pyrene `Baird Nova` fluorimeter. The rate of hydroxylation of aniline and BP in microsomes was expressed in nmol of metabolites/nmol of cytochrome P450 per 1 minute, or in nmol of metabolites/mg of microsome protein per 1 minute. Statistical processing of the obtained data was performed with the use of Student's t-test.

inbred C57 B1/6 mice = assay: Acetaldehyde narcosis in inbred C57 B1/6 mice; type: in vivo; conditions: GMDPA IP daily for three days
Procedure: as §1
This example studies the influence of GMDPA on acetaldehyde narcosis in inbred C57 B1/6 mice. The procedure of Example 1 was generally followed except that GMDPA was injected IP daily for three days and acetaldehyde was given 1, 4, 8 or 12 days later.

[7] = GMDP 0.01 mg/kg × 3 days i.p, hexenal 50 mg/kg 24 hours after GMDP injections
[8] = GMDP i.p injection simultaneously with hexenal injection, 50 mg/kg
[9] = GMDP i.p. injection 10 min after hexenal injection, 50 mg/kg
[10] = GMDP i.p. injection 30 min before hexenal injection, 50 mg/kg
[11] = GMDP i.p. injection 60 min before hexenal injection, 50 mg/kg
[12] = GMDP per os 15 min before i.p injection of hexenal 50 mg/kg
[13] = GMDP 0.01 mg/kg orally 15 min before hexobarbital 50 mg/kg i.p.
[14] = GMDP 0.1 mg/kg orally 15 min before hexobarbital 50 mg/kg i.p.
[15] = GMDP 1.0 mg/kg orally 15 min before hexobarbital 50 mg/kg i.p.
[16] = 24 hours after GMDP 20 mg/kg × 3 days i.p.
[17] = GMDP relative to control, 20 mg/kg × 3 days
[18] = liver microsomes, 24 hours after GMDP 20 mg/kg × 3 days i.p.

CC(=O)N[C@H]1[C@H](O[C@H]2[C@H](O[C@H](C)C(=O)N[C@@H](C)C(=O)N[C@H](CCC(=O)O)C(N)=O)[C@@H](NC(C)=O)C(O)O[C@@H]2CO)O[C@H](CO)[C@@H](O)[C@@H]1O (stereo partly drawn) [GMDP, N-acetyl-glucosaminyl-N-acetyl-muramyl-L-alanyl-D-isoglutamine]
acute toxicity in mice, LD50 (mice [1]): 7000 mg/kg | Narcosis duration min. (M ± m) (C57BL/6 mice; [7]): 21.7 ± 5.2 min | Narcotic effect in % from control (C57BL/6 mice; [7]): 45% | Narcosis duration min. (M ± m) (C57BL/6 mice; [8]): 25.7 ± 4.9 min | Narcotic effect in % from control (C57BL/6 mice; [8]): 85% | Narcosis duration min. (M ± m) (C57BL/6 mice; [9]): 41.2 ± 3.3 min | Narcotic effect in % from control (C57BL/6 mice; [9]): 95% | Narcosis duration min. (M ± m) (C57BL/6 mice; [10]): 18.4 ± 1.5 min | Narcotic effect in % from control (C57BL/6 mice; [10]): 61% | Narcosis duration min. (M ± m) (C57BL/6 mice; [11]): 30.9 ± 5.7 min | Narcotic effect in % from control (C57BL/6 mice; [11]): 100% | Narcosis duration min. (M ± m) (C57BL/6 mice; [12]): 31.3 ± 4.9 min | Narcotic effect in % from control (C57BL/6 mice; [12]): 57% | synthesis of the superoxide anion (O2^-) [2]: stimulates the synthesis of the superoxide anion | water solubility (Water solubility): water soluble | Narcosis duration Min (M ± m) (mice [3]; [13]): 15.48 ± 4.93 min | Effect % (M ± m) (mice [3]; [13]): -74.01 ± 8.15% | Narcosis duration Min (M ± m) (mice [3]; [14]): 8.72 ± 2.98 min | Effect % (M ± m) (mice [3]; [14]): -85.59 ± 4.92% | Narcosis duration Min (M ± m) (mice [3]; [15]): 18.47 ± 4.82 min | Effect % (M ± m) (mice [3]; [15]): -69.47 ± 7.96% | shortening of the duration of hexobarbital-induced narcosis (mice [3]; average over all the doses investigated): ~4 fold | blood level of bilirubin after treatment vs placebo [4]: significantly different from bilirubin levels after placebo treatment | average blood level of bilirubin, after vs before treatment ([4]; p=0.002): decreased | duration of acetaldehyde narcosis (outbred mice): markedly shortened the duration of narcosis | duration of ethanol narcosis (outbred white mice): much shorter duration | pyrogenicity (Pyrogenicity): sufficiently low not to have prevented its clinical evaluation | Ks (spectral association constant) [5]: 0.1 mM | type of optical difference spectrum [5]: type I optical difference spectrum | Liver weight mg/g of the animal weight [6, 16]: 80.0 mg/g of the animal weight | Microsomal protein mg/g of liver weight [6, 16]: 5.8 ± 0.31 mg/g of liver weight | Aniline-hydroxylase (per mg of protein), % [6, 17]: 194% | Aniline-hydroxylase (per nmol of cyt. P-450), % [6, 17]: 178% | BP-hydroxylase (per mg of protein), % [6, 17]: 171% | BP-hydroxylase (per nmol of cyt P-450), % [6, 17]: 218% | Cytochrome P-450, % [6, 17]: 134% | Microsomal protein, % [6, 17]: 129% | Cytochrome P-450 nmol/mg of protein ([6]; liver microsomal fraction, 24 hours after GMDP 20 mg/kg × 3 days i.p.): 0.87 ± 0.06 nmol/mg of protein | Aniline-hydroxylase nmol/mg of protein per 1 minute [6, 18]: 1.20 ± 0.1 nmol/mg of protein per 1 minut | Aniline-hydroxylase nmol/nmol of cyt. P-450 per 1 minute [6, 18]: 1.05 ± 0.01 nmol/nmol of cyt. P-450 per 1 | BP-hydroxylase nmol/mg of protein per 1 minute [6, 18]: 0.6 ± 0.04 nmol/mg of protein per 1 minut | BP-hydroxylase nmol/nmol of cyt P-450 per 1 minute [6, 18]: 0.87 ± 0.09 nmol/nmol of cyt P-450 per 1 m

N-acetyl-glucosaminyl-N-acetyl-muramyl-L-alanyl-D-glutamic acid [GMDPA]
inhibition of acetaldehyde narcosis (inbred C57 B1/6 mice; acetaldehyde given 1, 4 or 8 days later): inhibition of narcosis occurred | inhibition of acetaldehyde narcosis (inbred C57 B1/6 mice; acetaldehyde given 12 days later): not 12 | pyrogenicity (Pyrogenicity): substantially non-pyrogenic

Source: patent publication US5534492A, “Muramyl peptide for the treatment of toxicity” (Peptech (UK) Limited, priority 1992, dated 1996)
